Data taken from PubChem BioAssay (NCI).
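A five-concentration, 48-hour dose response in 96-well plates underlies each endpoint, interpolated linearly between surrounding concentrations. GI50 marks 50% less growth. The concentration for full growth arrest is given as TGI.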

How the values were obtained:
Assay in all cases: NCI anticancer screen, dose series, 48 h
786-0 renal = system: 786-0 renal
A498 renal = system: A498 renal
A549 NSCLC = system: A549 NSCLC
ACHN renal = system: ACHN renal
BT-549 breast = system: BT-549 breast
CAKI-1 renal = system: CAKI-1 renal
CCRF-CEM leukemia = system: CCRF-CEM leukemia
COLO 205 colon = system: COLO 205 colon
DU-145 prostate = system: DU-145 prostate
EKVX NSCLC = system: EKVX NSCLC
HCC-2998 colon = system: HCC-2998 colon
HCT-116 colon = system: HCT-116 colon
HCT-15 colon = system: HCT-15 colon
HL-60(TB) leukemia = system: HL-60(TB) leukemia
HOP-62 NSCLC = system: HOP-62 NSCLC
HOP-92 NSCLC = system: HOP-92 NSCLC
HS 578T breast = system: HS 578T breast
HT29 colon = system: HT29 colon
IGROV1 ovarian = system: IGROV1 ovarian
K-562 leukemia = system: K-562 leukemia
KM12 colon = system: KM12 colon
M14 melanoma = system: M14 melanoma
MALME-3M melanoma = system: MALME-3M melanoma
MCF7 breast = system: MCF7 breast
MDA-MB-231 breast = system: MDA-MB-231 breast
MDA-MB-435 = system: MDA-MB-435
MOLT-4 leukemia = system: MOLT-4 leukemia
NCI-H226 lung = system: NCI-H226 lung
NCI-H23 lung = system: NCI-H23 lung
NCI-H460 lung = system: NCI-H460 lung
NCI-H522 lung = system: NCI-H522 lung
NCI/ADR-RES ovarian = system: NCI/ADR-RES ovarian
OVCAR-4 ovarian = system: OVCAR-4 ovarian
OVCAR-5 ovarian = system: OVCAR-5 ovarian
OVCAR-8 ovarian = system: OVCAR-8 ovarian
PC-3 prostate = system: PC-3 prostate
RPMI-8226 leukemia = system: RPMI-8226 leukemia
RXF 393 renal = system: RXF 393 renal
SF-268 CNS = system: SF-268 CNS
SF-295 CNS = system: SF-295 CNS
SF-539 CNS = system: SF-539 CNS
SK-MEL-2 melanoma = system: SK-MEL-2 melanoma
SK-MEL-28 melanoma = system: SK-MEL-28 melanoma
SK-MEL-5 melanoma = system: SK-MEL-5 melanoma
SK-OV-3 ovarian = system: SK-OV-3 ovarian
SN12C renal = system: SN12C renal
SNB-19 CNS = system: SNB-19 CNS
SNB-75 CNS = system: SNB-75 CNS
SR leukemia = system: SR leukemia
SW-620 colon = system: SW-620 colon
T-47D breast = system: T-47D breast
TK-10 renal = system: TK-10 renal
U251 CNS = system: U251 CNS
UACC-257 melanoma = system: UACC-257 melanoma
UACC-62 melanoma = system: UACC-62 melanoma
UO-31 renal = system: UO-31 renal

O=C(CCC(=O)N1CCOCC1)OCCCCCCSc1ccc([N+](=O)[O-])c2nonc12
GI50 (786-0 renal): 1400 nM
TGI (786-0 renal): 4.15 µM
GI50 (A498 renal): 1850 nM
TGI (A498 renal): 4.26 µM
GI50 (A549 NSCLC): 2900 nM
TGI (A549 NSCLC): 12 µM
GI50 (ACHN renal): 472 nM
TGI (ACHN renal): 1680 nM
GI50 (BT-549 breast): 939 nM
TGI (BT-549 breast): 2170 nM
GI50 (CAKI-1 renal): 1520 nM
TGI (CAKI-1 renal): 3.95 µM
GI50 (CCRF-CEM leukemia): 284 nM
TGI (CCRF-CEM leukemia): 3.85 µM
GI50 (COLO 205 colon): 1890 nM
TGI (COLO 205 colon): 4.59 µM
GI50 (DU-145 prostate): 1400 nM
TGI (DU-145 prostate): 2710 nM
GI50 (EKVX NSCLC): 1550 nM
TGI (EKVX NSCLC): 3.26 µM
GI50 (HCC-2998 colon): 1680 nM
TGI (HCC-2998 colon): 3.16 µM
GI50 (HCT-116 colon): 410 nM
TGI (HCT-116 colon): 1670 nM
GI50 (HCT-15 colon): 267 nM
TGI (HCT-15 colon): 1120 nM
GI50 (HL-60(TB) leukemia): 313 nM
TGI (HL-60(TB) leukemia): 1620 nM
GI50 (HOP-62 NSCLC): 1740 nM
TGI (HOP-62 NSCLC): 4.45 µM
GI50 (HOP-92 NSCLC): 1240 nM
TGI (HOP-92 NSCLC): 2830 nM
GI50 (HS 578T breast): 1690 nM
TGI (HS 578T breast): 5.99 µM
GI50 (HT29 colon): 1010 nM
TGI (HT29 colon): 4.27 µM
GI50 (IGROV1 ovarian): 1010 nM
TGI (IGROV1 ovarian): 2240 nM
GI50 (K-562 leukemia): 259 nM
TGI (K-562 leukemia): > 100 µM
GI50 (KM12 colon): 2700 nM
TGI (KM12 colon): 7.77 µM
GI50 (M14 melanoma): 1320 nM
TGI (M14 melanoma): 2890 nM
GI50 (MALME-3M melanoma): 1150 nM
TGI (MALME-3M melanoma): 2510 nM
GI50 (MCF7 breast): 334 nM
TGI (MCF7 breast): 1920 nM
GI50 (MDA-MB-231 breast): 1390 nM
TGI (MDA-MB-231 breast): 3.08 µM
GI50 (MDA-MB-435): 1160 nM
TGI (MDA-MB-435): 2500 nM
GI50 (MOLT-4 leukemia): 410 nM
TGI (MOLT-4 leukemia): 3.49 µM
GI50 (NCI-H226 lung): 1440 nM
TGI (NCI-H226 lung): 3.81 µM
GI50 (NCI-H23 lung): 1390 nM
TGI (NCI-H23 lung): 3 µM
GI50 (NCI-H460 lung): 1700 nM
TGI (NCI-H460 lung): 3.82 µM
GI50 (NCI-H522 lung): 853 nM
TGI (NCI-H522 lung): 3.93 µM
GI50 (NCI/ADR-RES ovarian): 759 nM
TGI (NCI/ADR-RES ovarian): 4.44 µM
GI50 (OVCAR-4 ovarian): 1820 nM
TGI (OVCAR-4 ovarian): 3.8 µM
GI50 (OVCAR-5 ovarian): 1580 nM
TGI (OVCAR-5 ovarian): 3.25 µM
GI50 (OVCAR-8 ovarian): 827 nM
TGI (OVCAR-8 ovarian): 9.25 µM
GI50 (PC-3 prostate): 1600 nM
TGI (PC-3 prostate): 4.19 µM
GI50 (RPMI-8226 leukemia): 401 nM
TGI (RPMI-8226 leukemia): 3.35 µM
GI50 (RXF 393 renal): 574 nM
TGI (RXF 393 renal): 1960 nM
GI50 (SF-268 CNS): 1650 nM
TGI (SF-268 CNS): 5.25 µM
GI50 (SF-295 CNS): 2460 nM
TGI (SF-295 CNS): 7.21 µM
GI50 (SF-539 CNS): 666 nM
TGI (SF-539 CNS): 1990 nM
GI50 (SK-MEL-2 melanoma): 2480 nM
TGI (SK-MEL-2 melanoma): 6.68 µM
GI50 (SK-MEL-28 melanoma): 1620 nM
TGI (SK-MEL-28 melanoma): 3.11 µM
GI50 (SK-MEL-5 melanoma): 1700 nM
TGI (SK-MEL-5 melanoma): 3.29 µM
GI50 (SK-OV-3 ovarian): 3.85 µM
TGI (SK-OV-3 ovarian): 16.9 µM
GI50 (SN12C renal): 1010 nM
TGI (SN12C renal): 2300 nM
GI50 (SNB-19 CNS): 1610 nM
TGI (SNB-19 CNS): 4.71 µM
GI50 (SNB-75 CNS): 490 nM
TGI (SNB-75 CNS): 17 µM
GI50 (SR leukemia): 239 nM
TGI (SR leukemia): 2160 nM
GI50 (SW-620 colon): 479 nM
TGI (SW-620 colon): 2280 nM
GI50 (T-47D breast): 2030 nM
TGI (T-47D breast): 5.11 µM
GI50 (TK-10 renal): 4.1 µM
TGI (TK-10 renal): 13.3 µM
GI50 (U251 CNS): 640 nM
TGI (U251 CNS): 2700 nM
GI50 (UACC-257 melanoma): 1630 nM
TGI (UACC-257 melanoma): 3.66 µM
GI50 (UACC-62 melanoma): 1010 nM
TGI (UACC-62 melanoma): 2360 nM
GI50 (UO-31 renal): 418 nM
TGI (UO-31 renal): 2260 nM
